inhibition, IC50 and CC50 data for twelve compounds are collected here from ChEMBL document CHEMBL5120857, “Rational design, synthesis and biological evaluation of dual PARP-1/2 and TNKS1/2 inhibitors for cancer therapy” (Eur J Med Chem, 2022).

Active and inactive are the calls of the source. The calls are words filed in the database; no cut-off is given here.

Data set [1] deals with HCT-116. Briefly: Inhibition of Wnt/beta-Catenin signaling in human HCT-116 cells assessed as increase in axin2 levels at 10 uM by Western blot analysis. The data set is classed as cell-based.
For data set [2], the system named is HCT-116. The data set can be described thus: Inhibition of Wnt/beta-Catenin signaling in human HCT-116 cells assessed as decrease in cyclin D1 levels at 10 uM by Western blot analysis. It counts as cell-based. On the technique in general: A western blot detects proteins with antibodies after separation by electrophoresis.
Data set [3] concerns HCT-116. Briefly: Inhibition of PARP in human HCT-116 cells assessed as decrease in pADPr levels at 10 uM by Western blot analysis. The data set is classed as cell-based.
The target in data set [4] is T1, Poly [ADP-ribose] polymerase tankyrase-1 (Homo sapiens) (UniProt O95271).
T1 sequence (whole entry): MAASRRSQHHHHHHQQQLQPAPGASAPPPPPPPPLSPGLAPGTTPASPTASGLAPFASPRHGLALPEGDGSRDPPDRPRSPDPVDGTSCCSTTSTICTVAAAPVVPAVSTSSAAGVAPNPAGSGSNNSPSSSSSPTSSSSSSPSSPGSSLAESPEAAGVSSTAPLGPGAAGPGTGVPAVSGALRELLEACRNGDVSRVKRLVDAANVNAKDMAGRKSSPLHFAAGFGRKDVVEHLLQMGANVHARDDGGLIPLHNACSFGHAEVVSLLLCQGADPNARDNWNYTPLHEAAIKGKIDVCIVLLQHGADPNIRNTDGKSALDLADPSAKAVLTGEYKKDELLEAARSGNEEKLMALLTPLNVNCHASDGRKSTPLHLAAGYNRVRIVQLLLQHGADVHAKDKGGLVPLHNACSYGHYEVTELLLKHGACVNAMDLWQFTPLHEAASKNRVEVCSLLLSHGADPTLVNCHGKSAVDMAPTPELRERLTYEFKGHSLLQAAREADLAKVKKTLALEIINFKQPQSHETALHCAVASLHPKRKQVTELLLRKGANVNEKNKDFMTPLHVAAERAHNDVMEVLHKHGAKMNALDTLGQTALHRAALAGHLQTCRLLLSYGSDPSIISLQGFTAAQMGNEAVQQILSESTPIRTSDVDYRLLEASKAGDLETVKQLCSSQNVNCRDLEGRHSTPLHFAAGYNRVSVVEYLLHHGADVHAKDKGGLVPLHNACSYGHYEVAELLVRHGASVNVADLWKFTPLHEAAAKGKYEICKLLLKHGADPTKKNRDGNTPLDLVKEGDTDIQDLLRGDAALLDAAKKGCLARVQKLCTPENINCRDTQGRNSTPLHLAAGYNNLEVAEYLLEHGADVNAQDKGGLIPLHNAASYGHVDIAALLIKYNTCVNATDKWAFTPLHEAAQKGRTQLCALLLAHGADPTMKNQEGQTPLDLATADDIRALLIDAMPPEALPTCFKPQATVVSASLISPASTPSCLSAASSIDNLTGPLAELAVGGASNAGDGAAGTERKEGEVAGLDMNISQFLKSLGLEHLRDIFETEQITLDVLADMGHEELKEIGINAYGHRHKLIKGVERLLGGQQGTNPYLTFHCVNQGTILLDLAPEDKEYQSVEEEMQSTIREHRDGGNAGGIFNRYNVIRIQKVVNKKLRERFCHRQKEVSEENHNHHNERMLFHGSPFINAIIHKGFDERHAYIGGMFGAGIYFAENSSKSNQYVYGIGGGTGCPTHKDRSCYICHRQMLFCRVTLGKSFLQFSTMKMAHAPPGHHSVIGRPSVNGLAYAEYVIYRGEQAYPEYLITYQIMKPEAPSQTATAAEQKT
The conditions noted are these: dose 10.0 nM, time 1.0 hrs.

The target in data set [5] is T2, Poly [ADP-ribose] polymerase 1 (Homo sapiens, UniProt P09874). Conditions: dose 10.0 nM, time 45.0 min.
Data set [6] addresses T3, Poly [ADP-ribose] polymerase tankyrase-2 (Homo sapiens) (UniProt Q9H2K2).
T3 sequence (whole entry): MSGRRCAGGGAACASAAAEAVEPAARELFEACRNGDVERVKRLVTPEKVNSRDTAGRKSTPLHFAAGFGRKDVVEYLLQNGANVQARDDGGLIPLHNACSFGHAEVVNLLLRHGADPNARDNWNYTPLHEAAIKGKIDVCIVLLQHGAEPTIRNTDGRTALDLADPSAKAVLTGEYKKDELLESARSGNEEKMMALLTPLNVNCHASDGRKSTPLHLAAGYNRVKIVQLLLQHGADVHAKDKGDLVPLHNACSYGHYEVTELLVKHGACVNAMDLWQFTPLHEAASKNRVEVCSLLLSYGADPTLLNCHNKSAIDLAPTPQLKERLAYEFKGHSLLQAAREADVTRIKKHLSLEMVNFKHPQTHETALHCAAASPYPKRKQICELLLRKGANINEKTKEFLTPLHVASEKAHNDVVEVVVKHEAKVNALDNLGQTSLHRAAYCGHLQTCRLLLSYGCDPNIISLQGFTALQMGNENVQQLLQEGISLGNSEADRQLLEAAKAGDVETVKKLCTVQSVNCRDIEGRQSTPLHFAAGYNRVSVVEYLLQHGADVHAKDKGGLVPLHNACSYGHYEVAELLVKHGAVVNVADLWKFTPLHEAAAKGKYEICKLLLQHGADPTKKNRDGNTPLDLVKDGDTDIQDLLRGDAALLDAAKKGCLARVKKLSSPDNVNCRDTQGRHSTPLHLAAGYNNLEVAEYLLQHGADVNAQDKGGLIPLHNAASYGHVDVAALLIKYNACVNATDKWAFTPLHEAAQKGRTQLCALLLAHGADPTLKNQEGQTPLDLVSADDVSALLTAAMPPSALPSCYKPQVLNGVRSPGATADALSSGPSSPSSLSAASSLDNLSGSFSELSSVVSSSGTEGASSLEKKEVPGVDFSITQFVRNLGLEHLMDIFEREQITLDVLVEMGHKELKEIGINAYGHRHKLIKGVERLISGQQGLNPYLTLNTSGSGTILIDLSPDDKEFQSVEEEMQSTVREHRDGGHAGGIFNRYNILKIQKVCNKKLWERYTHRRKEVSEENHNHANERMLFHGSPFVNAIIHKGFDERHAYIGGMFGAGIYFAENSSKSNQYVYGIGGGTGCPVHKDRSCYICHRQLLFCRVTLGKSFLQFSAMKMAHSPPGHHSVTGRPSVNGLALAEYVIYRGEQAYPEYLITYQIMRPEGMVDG
The conditions noted are these: dose 10.0 nM, time 1.0 hrs.

Data set [7] deals with T2, Poly [ADP-ribose] polymerase 1. The data set can be described thus: Inhibition of PARP-1 (unknown origin) using biotinylated NAD+ as substrate incubated for 45 mins in the presence of deoxy-oligonucleotide by microplate reader method relative to control.
For data set [8], the target named is T4, Poly [ADP-ribose] polymerase tankyrase-1 (Homo sapiens, UniProt O95271).
T4 sequence (O95271 whole entry): T1 sequence (whole entry)
Briefly: Inhibition of TNKS1 (unknown origin) using biotin-NAD+ as substrate incubated for 1 hr in the presence of deoxy-oligonucleotide by ELISA analysis relative to control. (In an ELISA, binding on a coated surface is turned into a signal by an enzyme label.)

The target of data set [9] is T5, Poly [ADP-ribose] polymerase tankyrase-2 (Homo sapiens, UniProt Q9H2K2).
T5 sequence (Q9H2K2 whole entry): T3 sequence (whole entry)
The data set can be described thus: Inhibition of TNKS2 (unknown origin) using biotin-NAD+ as substrate incubated for 1 hr in the presence of deoxy-oligonucleotide by ELISA analysis relative to control.

The test system of the next data set is MDA-MB-231. Briefly: Antiproliferative activity against human MDA-MB-231 cells assessed as inhibition of cell growth incubated for 7 days by MTT assay. The data set is classed as functional, cell-based. The conditions noted are these: MDA-MB-231, 168 h.
The test system of data set [10] is HCT-116. Briefly: Antiproliferative activity against human HCT-116 cells assessed as inhibition of cell growth incubated for 7 days by MTT assay. It counts as functional, cell-based. The conditions noted are these: HCT-116, 168 h. (In general: Tetrazolium dyes change colour on reduction, which living cells bring about.)
In a further data set the test system is MDA-MB-468. Briefly: Antiproliferative activity against human MDA-MB-468 cells assessed as inhibition of cell growth incubated for 7 days by MTT assay. The data set is classed as functional, cell-based. Conditions: MDA-MB-468, 168 h.
Data set [11] is described as follows: Cytotoxicity against mouse AML12 cells assessed as reduction in cell viability incubated for 7 days by MTT assay. It counts as toxicity, cell-based. The conditions noted are these: time 7 day.

T2 sequence (P09874 whole entry): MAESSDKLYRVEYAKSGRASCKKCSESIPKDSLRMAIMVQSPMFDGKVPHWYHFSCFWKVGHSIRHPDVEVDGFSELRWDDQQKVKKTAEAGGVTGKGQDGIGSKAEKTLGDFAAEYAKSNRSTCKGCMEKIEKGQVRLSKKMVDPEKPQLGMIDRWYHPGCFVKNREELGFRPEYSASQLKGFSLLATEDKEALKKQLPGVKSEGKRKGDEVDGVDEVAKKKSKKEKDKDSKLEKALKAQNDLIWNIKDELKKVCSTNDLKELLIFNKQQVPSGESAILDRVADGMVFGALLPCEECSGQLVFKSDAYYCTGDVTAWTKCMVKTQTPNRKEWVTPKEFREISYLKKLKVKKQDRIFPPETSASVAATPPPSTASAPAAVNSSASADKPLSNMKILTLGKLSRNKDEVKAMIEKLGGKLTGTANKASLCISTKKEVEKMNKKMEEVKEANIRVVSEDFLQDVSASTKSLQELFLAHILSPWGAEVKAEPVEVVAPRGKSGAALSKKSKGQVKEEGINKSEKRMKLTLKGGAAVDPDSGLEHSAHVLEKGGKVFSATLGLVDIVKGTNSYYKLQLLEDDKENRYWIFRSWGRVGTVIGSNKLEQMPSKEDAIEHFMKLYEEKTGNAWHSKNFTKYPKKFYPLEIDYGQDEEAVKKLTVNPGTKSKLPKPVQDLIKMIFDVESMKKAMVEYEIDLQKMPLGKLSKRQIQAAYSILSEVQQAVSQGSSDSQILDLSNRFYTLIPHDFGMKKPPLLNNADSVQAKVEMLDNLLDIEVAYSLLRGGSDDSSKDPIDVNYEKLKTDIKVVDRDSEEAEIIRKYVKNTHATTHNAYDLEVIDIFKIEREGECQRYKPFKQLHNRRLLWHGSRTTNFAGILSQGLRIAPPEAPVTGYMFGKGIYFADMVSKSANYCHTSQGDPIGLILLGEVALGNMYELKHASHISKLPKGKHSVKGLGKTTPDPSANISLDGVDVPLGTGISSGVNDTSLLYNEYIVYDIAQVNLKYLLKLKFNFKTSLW

As a reminder, the inhibition is the relative decrease from the control value, in per cent. Take `Oc1nc(-c2ccc(C(F)(F)F)cc2)nc2c1CSCC2`: the inhibition entry in the data set with HCT-116 [1], in the data set on HCT-116 [2] and in the data set on HCT-116 [3] was “Active” in each case. This compound also displayed an inhibition in data set [4] of 86%.

For `O=C(Nc1cccc2cccnc12)c1ccc(NC(=O)N2CCN(C(=O)c3cc(Cc4n[nH]c(=O)c5ccccc45)ccc3F)CC2)cc1`, the inhibition came out at 96% in [5] and 28% in data set [6].

Turning to `O=C(Nc1cccc(F)c1)c1ccc(NC(=O)N2CCN(C(=O)c3cc(Cc4n[nH]c(=O)c5ccccc45)ccc3F)CC2)cc1`, the values for the inhibition in [5] and in [6] were 98% and 26%, respectively.

For orientation: IC50 means the midpoint of a concentration-inhibition curve. On to `O=C(Nc1ccc(C(F)(F)F)cc1)c1ccc(NC(=O)N2CCN(C(=O)c3cc(Cc4n[nH]c(=O)c5ccccc45)ccc3F)CC2)cc1`, for which the IC50 was found to be 4.08 nM in data set [7], 551 nM in data set [8] and 367 nM in data set [9]. Moreover, the inhibition in data set [5] amounted to 98%; in data set [4], 12.5%; in data set [6], 28%.

Broadly, the CC50 is the concentration that lowers cell viability or growth by half. Regarding `Cc1ccccc1NC(=O)c1ccc(NC(=O)N2CCN(C(=O)c3cc(Cc4n[nH]c(=O)c5ccccc45)ccc3F)CC2)cc1`, the IC50 in the data set on MDA-MB-231 turned out to be 1290 nM; in the data set with HCT-116 [10] it was 1040 nM; in the data set on MDA-MB-468, 70 nM; in [7] it was 1.62 nM; in data set [8], 130 nM; in [9] it was 110 nM. In addition, in data set [11], the CC50 at 168 h was 86700 nM. Moreover, the inhibition came out at 99% in [5], 20% in data set [4] and 40% in data set [6].

For `O=C(Nc1ccc(F)cc1)c1ccc(NC(=O)N2CCN(C(=O)c3cc(Cc4n[nH]c(=O)c5ccccc45)ccc3F)CC2)cc1`, the IC50 with MDA-MB-231 stood at 960 nM; in the data set with HCT-116 [10], 510 nM; in the data set on MDA-MB-468, 110 nM; in [7] it was 1.54 nM; in data set [8], 214 nM; in [9], 171 nM. Further, in data set [11], the CC50 at 168 h came to 37400 nM. In addition, the inhibition came out at 89% in data set [5], 14% in data set [4] and 38% in data set [6].

Turning to `COc1ccc(NC(=O)c2ccc(NC(=O)N3CCN(C(=O)c4cc5cccc(C(N)=O)c5o4)CC3)cc2)cc1`, the inhibition was 51.5% in data set [5], 22.5% in [4] and 22.5% in data set [6].

Turning to `COc1ccc(NC(=O)c2ccc(NC(=O)C3CCN(C(=O)c4cc(Cc5n[nH]c(=O)c6ccccc56)ccc4F)CC3)cc2)cc1`, the inhibition in [5] stood at 97%; in data set [6], 11.5%.

In the case of `Cc1ccc(NC(=O)c2ccc(NC(=O)N3CCN(C(=O)c4cc(Cc5n[nH]c(=O)c6ccccc56)ccc4F)CC3)cc2)cc1`, the IC50 in the data set with MDA-MB-231 came out at 680 nM; in the data set with HCT-116 [10] it was 700 nM; with MDA-MB-468, 40 nM; in data set [7] it was 0.49 nM; in data set [8], 39 nM; in [9], 14 nM. For the same compound, the CC50 at 168 h in [11] was found to be 49200 nM. Also, the inhibition worked out at 99% in data set [5], 13% in data set [4] and 48% in data set [6].

Consider `COc1ccc(NC(=O)C2CCN(CC(=O)N3CCN(C(=O)c4cc(Cc5n[nH]c(=O)c6ccccc56)ccc4F)CC3)CC2)cc1`, for which the inhibition in [5] is 98%.

Consider `Cc1cccc(NC(=O)c2ccc(NC(=O)N3CCN(C(=O)c4cc(Cc5n[nH]c(=O)c6ccccc56)ccc4F)CC3)cc2)c1`, for which the inhibition in data set [5] stood at 99%; in data set [6] it was 29.5%.

Turning to `O=C(Nc1ccccc1F)c1ccc(NC(=O)N2CCN(C(=O)c3cc(Cc4n[nH]c(=O)c5ccccc45)ccc3F)CC2)cc1`, the IC50 was 0.98 nM in data set [7], 506 nM in data set [8] and 296 nM in data set [9]. For the same compound, the inhibition was 99% in data set [5], 10.5% in data set [4] and 36% in data set [6].
